According to patent publication US7879887B2, “α-amino acid derivatives and medicaments containing the same as an active ingredient” (Nissan Chemical Industries, Ltd., priority 2006, dated 2011):

Experiments:
[1] = test system: prostate cancer cell line DU 145; test: Cell proliferation inhibitory activity, DU 145; type: cell-based, human; settings: cells counted 4 days later with Cell Counting Kit-8
Method: (§1) Evaluations were carried out using colon carcinoma cell line SW620 (Cat. No. CCL-227), lung carcinoma cell line NCI-H460 (Cat. No. HTB-177), prostate cancer cell line DU 145 (Cat. No. HTB-81), breast cancer cell line MDA-MB-231 (Cat. No. HTB26) and leukemia cell line KG-1a (Cat. No. CCL-246.1) purchased from ATCC, pancreatic cancer cell line MIAPaCa-2 (Cat. No. CRL-1420) purchased from Dainippon Pharmaceutical, and ovarian cancer cell line IGROV1 received from the Netherland Cancer Institute. The cells were cultured under the conditions recommended by the supplier for each cell line, or with respect to IGROV1, according to the method described in Cancer Res. 59: 4559-4563, 1999. Cells suspended in media were added to solutions containing the test substances at various concentrations followed by culturing in a 5% CO2 incubator at 37° C. The numbers of cells were counted 4 days later with the Cell Counting Kit-8. IC50 values were calculated by assigning measured values in the case of not containing a test substance to an inhibition of 0%, and assigning measured values in the case of not containing a test substance or cells to an inhibition of 100%.

[2] = test system: lung carcinoma cell line NCI-H460; test: Cell proliferation inhibitory activity, NCI-H460; type: cell-based; settings: cells counted 4 days later with Cell Counting Kit-8
Method: as §1

[3] = test system: colon carcinoma cell line SW620; test: Cell proliferation inhibitory activity, SW620; type: cell-based, human; settings: cells counted 4 days later with Cell Counting Kit-8
Method: as §1

[4] = test system: breast cancer cell line MDA-MB-231; test: Cell proliferation inhibitory activity, MDA-MB-231; type: cell-based; settings: cells counted 4 days later with Cell Counting Kit-8
Method: as §1

[5] = test system: ovarian cancer cell line IGROV1; test: Cell proliferation inhibitory activity, IGROV1; type: cell-based; settings: cells counted 4 days later with Cell Counting Kit-8
Method: as §1

leukemia cell line KG-1a = test: Cell proliferation inhibitory activity, KG-1a; type: cell-based; settings: cells counted 4 days later with Cell Counting Kit-8
Method: as §1

CDK2/Cyclin E complex = CDK2/Cyclin E complex (Homo sapiens, UniProt P24941); test: In vitro kinase assay, CDK2/Cyclin E complex; type: biochemical; settings: recombinant protein (Upstate); read-out: CDK2/cyclinE IC50
Method: (§2) Inhibitory activity against Aurora A, CDK1/Cyclin B complex, CDK2/Cyclin E complex and CDK3/Cyclin E complex were measured by in vitro kinase assay using recombinant proteins.

CDK3/Cyclin E complex = target: T1, CDK3/Cyclin E complex (Homo sapiens, UniProt Q00526); test: In vitro kinase assay, CDK3/Cyclin E complex; type: biochemical; settings: recombinant protein (Upstate); read-out: CDK3/cyclinE IC50
T1 construct: purchased Upstate Inc. 14-487
Method: as §2

CDK1/Cyclin B complex = target: T2, CDK1/Cyclin B complex (Homo sapiens, UniProt P06493); test: In vitro kinase assay, CDK1/Cyclin B complex; type: biochemical; settings: recombinant protein (Upstate)
T2 construct: purchased Upstate Inc. 14-450
Method: (§3) Inhibitory activity against Aurora A, CDK1/Cyclin B complex, CDK2/Cyclin E complex and CDK3/Cyclin E complex were measured by in vitro kinase assay using recombinant proteins. The assays were carried out by using recombinant proteins (Upstate Inc.) for Aurora A, CDK1/Cyclin B complex, CDK2/Cyclin E complex and CDK3/Cyclin E complex (respective cat. nos. 14-511, 14-450, 14-448 and 14-487), in accordance with the procedure described in the product instructions thereof. The 50% inhibitory concentrations (IC50 values) were calculated by assigning measured values in the case of not containing a test compound to an inhibition of 0%, and assigning measured values in the case of not containing a test compound and enzyme to an inhibition of 100%.

Aurora A = target: T3, Aurora A (Homo sapiens, UniProt O14965); test: In vitro kinase assay, Aurora A; type: biochemical; settings: recombinant protein (Upstate)
T3 construct: purchased Upstate Inc. 14-511
T3 sequence (O14965 1-403): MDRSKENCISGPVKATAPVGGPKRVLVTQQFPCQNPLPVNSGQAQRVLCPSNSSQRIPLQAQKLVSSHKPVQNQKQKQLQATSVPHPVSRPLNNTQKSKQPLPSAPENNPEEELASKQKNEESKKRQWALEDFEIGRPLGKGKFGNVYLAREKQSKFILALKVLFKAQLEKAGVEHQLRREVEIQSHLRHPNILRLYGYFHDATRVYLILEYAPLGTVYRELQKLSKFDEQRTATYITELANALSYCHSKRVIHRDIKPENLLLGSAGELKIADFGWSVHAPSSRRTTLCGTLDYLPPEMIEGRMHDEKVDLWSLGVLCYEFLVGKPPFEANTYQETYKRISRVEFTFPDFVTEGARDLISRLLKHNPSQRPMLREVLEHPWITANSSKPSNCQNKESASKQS
Method: as §3

T1 sequence (Q00526 whole entry): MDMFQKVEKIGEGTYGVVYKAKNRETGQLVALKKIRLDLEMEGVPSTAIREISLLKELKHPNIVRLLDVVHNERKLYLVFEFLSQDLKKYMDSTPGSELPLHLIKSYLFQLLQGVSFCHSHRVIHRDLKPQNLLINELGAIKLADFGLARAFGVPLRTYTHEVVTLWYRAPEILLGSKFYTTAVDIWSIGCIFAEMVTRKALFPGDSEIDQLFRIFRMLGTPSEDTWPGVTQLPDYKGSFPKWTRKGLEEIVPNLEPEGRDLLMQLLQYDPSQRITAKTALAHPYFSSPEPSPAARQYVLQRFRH
T1 sequence (P24864 whole entry partner): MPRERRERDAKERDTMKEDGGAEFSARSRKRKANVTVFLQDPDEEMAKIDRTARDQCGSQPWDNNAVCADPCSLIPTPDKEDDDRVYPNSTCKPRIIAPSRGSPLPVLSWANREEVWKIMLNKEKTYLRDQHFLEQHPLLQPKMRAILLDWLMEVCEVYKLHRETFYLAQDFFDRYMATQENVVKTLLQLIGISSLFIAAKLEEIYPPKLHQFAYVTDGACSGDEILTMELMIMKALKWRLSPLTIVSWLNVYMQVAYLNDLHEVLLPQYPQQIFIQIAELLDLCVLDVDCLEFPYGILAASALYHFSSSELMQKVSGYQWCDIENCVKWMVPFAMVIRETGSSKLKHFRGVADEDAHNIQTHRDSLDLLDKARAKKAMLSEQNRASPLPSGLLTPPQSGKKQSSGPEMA
T2 sequence (P06493 whole entry): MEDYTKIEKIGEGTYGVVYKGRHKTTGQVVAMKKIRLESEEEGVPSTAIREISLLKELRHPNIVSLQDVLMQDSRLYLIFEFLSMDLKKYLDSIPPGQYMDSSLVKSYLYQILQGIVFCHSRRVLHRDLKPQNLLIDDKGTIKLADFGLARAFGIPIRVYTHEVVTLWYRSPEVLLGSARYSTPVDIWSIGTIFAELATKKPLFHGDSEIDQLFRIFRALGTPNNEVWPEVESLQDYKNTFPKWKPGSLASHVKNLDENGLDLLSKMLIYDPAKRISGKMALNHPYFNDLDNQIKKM
T2 sequence (P14635 whole entry partner): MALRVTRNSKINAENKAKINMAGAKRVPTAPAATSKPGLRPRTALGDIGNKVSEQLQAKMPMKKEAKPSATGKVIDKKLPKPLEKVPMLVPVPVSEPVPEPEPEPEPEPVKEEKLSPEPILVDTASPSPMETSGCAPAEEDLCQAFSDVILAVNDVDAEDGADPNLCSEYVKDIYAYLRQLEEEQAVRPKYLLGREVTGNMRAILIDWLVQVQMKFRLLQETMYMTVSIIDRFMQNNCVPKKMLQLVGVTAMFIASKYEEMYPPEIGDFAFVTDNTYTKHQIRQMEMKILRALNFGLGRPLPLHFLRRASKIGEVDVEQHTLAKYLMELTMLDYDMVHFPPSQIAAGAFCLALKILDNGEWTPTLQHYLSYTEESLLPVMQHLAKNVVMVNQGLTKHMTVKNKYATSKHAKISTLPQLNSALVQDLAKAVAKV

Row | IC50 [1] | IC50 [2] | IC50 [3] | IC50 [4] | IC50 [5] | IC50 (leukemia cell line KG-1a) | SMILES | IC50 (leukemia cell line KG-1a; Homo sapiens, 96 h) | IC50 (CDK2/Cyclin E complex) | IC50 ([3]; Homo sapiens, SW-620, 96 h) | IC50 (CDK3/Cyclin E complex) | IC50 ([5]; Homo sapiens, IGROV-1, 96 h) | IC50 ([4]; Homo sapiens, 96 h) | IC50 ([1]; Homo sapiens, 96 h) | IC50 (CDK1/Cyclin B complex) | IC50 ([2]; Homo sapiens, 96 h) | IC50 (Aurora A)
1 | 4200 nM | 2000 nM | 1800 nM | 2800 nM | 4500 nM | – | CC(C)(Nc1ccc(Cl)c(OCCCS(N)(=O)=O)c1)C(=O)Nc1nc2c(C(F)(F)F)cc3[nH]ncc3c2s1 [compound 94] | – | – | – | – | – | – | – | – | – | –
2 | – | – | – | – | – | – | Nc1cccc(NCC(=O)Nc2nc3ccc4[nH]ncc4c3s2)c1 [compound 11] | < 100 nM | 192 nM | 1600 nM | 355 nM | 4800 nM | – | – | – | – | –
3 | – | – | – | – | – | – | O=C(CNc1cccc(F)c1)Nc1nc2ccc3[nH]ncc3c2s1 [compound 3] | 100 nM | 199 nM | 1700 nM | 391 nM | 4900 nM | 4700 nM | – | – | – | –
4 | – | – | – | – | – | – | O=C(CNc1ccccc1)Nc1nc2ccc3[nH]ncc3c2s1 [compound 104] | < 100 nM | 412 nM | 1000 nM | 395 nM | 4700 nM | 4900 nM | – | – | – | –
5 | – | – | – | – | – | – | O=C(Nc1nc2ccc3[nH]ncc3c2s1)C1(Nc2ccc(Cl)cc2)CCCC1 [compound 115] | < 100 nM | 154 nM | 700 nM | 217 nM | 4800 nM | 3900 nM | 3200 nM | – | – | –
6 | – | – | – | – | – | – | O=C(Nc1nc2ccc3[nH]ncc3c2s1)C1(Nc2ccc(Cl)cc2)CCCCC1 [compound 116] | 200 nM | 245 nM | 1000 nM | 412 nM | 4900 nM | – | 3400 nM | 486 nM | – | –
7 | – | – | 1600 nM | – | 4600 nM | < 100 nM | COc1cccc(NCC(=O)Nc2nc3ccc4[nH]ncc4c3s2)c1 [compound 1] | – | – | – | – | – | – | – | – | – | –
8 | – | – | – | – | – | – | O=C(Nc1nc2ccc3[nH]ncc3c2s1)C1(Nc2cccc(O)c2)CC1 [compound 122] | < 100 nM | 56 nM | 1100 nM | 63 nM | 4900 nM | 3100 nM | 4500 nM | 197 nM | 4000 nM | 168 nM
9 | – | – | – | – | – | – | COC(=O)Nc1cc(NC(C)(C)C(=O)Nc2nc3ccc4[nH]ncc4c3s2)ccc1Cl [compound 50] | < 100 nM | 435 nM | 2500 nM | – | 4800 nM | – | – | – | – | 426 nM
10 | – | – | – | – | – | – | O=C(Nc1nc2ccc3[nH]ncc3c2s1)C1(Nc2ccc(Cl)cc2)CCC1 [compound 114] | < 100 nM | 83 nM | 700 nM | 174 nM | – | 4700 nM | – | – | – | –
11 | – | – | – | – | – | – | CC(C)(Nc1ccc(Cl)c(NS(C)(=O)=O)c1)C(=O)Nc1nc2c(C(F)(F)F)cc3[nH]ncc3c2s1 [compound 84] | 200 nM | 44 nM | 1600 nM | 44 nM | – | 4800 nM | 3400 nM | 205 nM | 3200 nM | 247 nM
12 | – | – | – | – | – | – | CNC(=O)Nc1cc(NC(C)(C)C(=O)Nc2nc3c(C(F)(F)F)cc4[nH]ncc4c3s2)ccc1Cl [compound 90] | – | 160 nM | 1300 nM | 70 nM | – | 4400 nM | 1900 nM | 365 nM | 2500 nM | –
